According to BigSolDB 2.1:

O.O=c1c(O)c(-c2ccc(O)cc2)oc2cc(O)cc(O)c12
solubility (mole fraction)
Conditions | 283.15 K | 288.15 K | 293.15 K | 298.15 K | 303.15 K | 308.15 K | 313.15 K | 318.15 K | 318.25 K | 323.15 K
in ethanol | 0.00668 | 0.00812 | 0.00993 | 0.0121 | 0.0146 | 0.0178 | 0.0212 | 0.025 | – | 0.0295
in isopropanol | 0.00356 | 0.00502 | 0.00676 | 0.00907 | 0.0126 | 0.0171 | 0.0222 | – | 0.0281 | 0.036
in n-butanol | 0.00626 | 0.00772 | 0.00935 | 0.0113 | 0.0137 | 0.0164 | 0.0197 | 0.0236 | – | 0.028
in n-propanol | 0.00621 | 0.00727 | 0.00861 | 0.0103 | 0.0121 | 0.014 | 0.0162 | 0.0188 | – | 0.0217
in sec-butanol | 0.00599 | 0.00758 | 0.00926 | 0.0114 | 0.0138 | 0.0164 | 0.0196 | 0.0236 | – | 0.0285
